Results: patent US6376497B1, “Antifungal azole derivatives having a fluorinated vinyl group and process for preparing same” (Korea Research Institute of Chemical Technology, priority 1999, dated 2002)
Where two headings read alike, the source gives them in different places.

Legend:
Test in all cases: In vitro antifungal activity, microbroth dilution MIC
Type in all cases: cell-based
[1] = test system: Cryptococcus neoformans A. 34144; details: Cryptococcus neoformans
Outline: (§1)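 Broth microdilution adapted from NCCLS M27, in RPMI-1640 with 0.165 M MOPS, pH 7.0. Yeast or mould inoculum at 2×10^3 CFU/ml was mixed 1:1 with DMSO-derived compound solutions (200 to 0.10 μg/ml before mixing) and incubated at 35 °C for 4 to 48 h. MIC was the concentration showing no growth.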

[2] = test system: Trichophyton mentagrophytes B. 32663; details: Trichophyton mentagrophytes
Outline: as §1

[3] = test system: Trichophyton mentagrophytes A. 9129; details: Trichophyton mentagrophytes
Outline: as §1

[4] = test system: Candida pseudotropicalis K. 11658; details: Kluyveromyces marxianus, 4 to 48 hours
Outline: as §1

[5] = test system: Cryptococcus neoformans IFM. 40092; details: Cryptococcus neoformans
Outline: as §1

Candida krusei K. 11655 = details: Pichia kudriavzevii, 4 to 48 hours
Outline: as §1

[6] = test system: Candida parapsitosis A. 7330; details: Candida, 4 to 48 hours
Outline: as §1

[7] = test system: Aspergillus niger A. 16404; details: Aspergillus niger
Outline: as §1

[8] = test system: Candida albicans A. 10231; details: Candida albicans, 4 to 48 hours
Outline: as §1

[9] = test system: Cryptococcus neoformans B. 42419; details: Cryptococcus neoformans, 4 to 48 hours
Outline: as §1

[10] = test system: Candida albicans IFO. 1385; details: Candida albicans, 4 to 48 hours
Outline: as §1

Candida albicans C1-2 = details: Candida albicans, 4 to 48 hours
Outline: as §1

[11] = test system: Aspergillus furnigatus B. 19119; details: Aspergillus
Outline: as §1

[12] = test system: Candida tropicalis A. 13803; details: Candida tropicalis, 4 to 48 hours
Outline: as §1

[13] = A.34144, RPMI-1640, 35° C., 4 to 48 hours, no growth observed, read-out: Minimal inhibitory concentration(MIC), Cry. neoformans A. 34144
[14] = A.34144, RPMI-1640, 35° C., no growth observed, read-out: Minimal inhibitory concentration (MIC), Cry. neoformans A. 34144
[15] = Cry. neoformans A. 34144, RPMI-1640, 35° C., 4 to 48 hours, read-out: Minimal inhibitory concentration (MIC)
[16] = B.32663, RPMI-1640, 35° C., 4 to 48 hours, no growth observed, read-out: Minimal inhibitory concentration(MIC), T. mentagrophytes B. 32663
[17] = B.32663, RPMI-1640, 35° C., no growth observed, read-out: Minimal inhibitory concentration (MIC), T. mentagrophytes B. 32663
[18] = T. mentagrophytes B. 32663, RPMI-1640, 35° C., 4 to 48 hours, read-out: Minimal inhibitory concentration (MIC)
[19] = A.9129, RPMI-1640, 35° C., 4 to 48 hours, no growth observed, read-out: Minimal inhibitory concentration(MIC), T. mentagrophytes A. 9129
[20] = A.9129, RPMI-1640, 35° C., no growth observed, read-out: Minimal inhibitory concentration (MIC), T. mentagrophytes A. 9129
[21] = T. mentagrophytes A. 9129, RPMI-1640, 35° C., 4 to 48 hours, read-out: Minimal inhibitory concentration (MIC)
[22] = C. pseudotropicalis K. 11658, RPMI-1640, 35° C., read-out: Minimal inhibitory concentration (MIC)
[23] = K.11658, RPMI-1640, 35° C., no growth observed, read-out: Minimal inhibitory concentration(MIC), C. pseudotropicalis K. 11658
[24] = Cry. neoformans IFM. 40092, RPMI-1640, 35° C., 4 to 48 hours, read-out: Minimal inhibitory concentration (MIC)
[25] = IFM.40092, RPMI-1640, 35° C., 4 to 48 hours, no growth observed, read-out: Minimal inhibitory concentration(MIC), Cry. neoformans IFM. 40092
[26] = IFM.40092, RPMI-1640, 35° C., no growth observed, read-out: Minimal inhibitory concentration (MIC), Cry. neoformans IFM. 40092
[27] = C. krusei K. 11655, RPMI-1640, 35° C., read-out: Minimal inhibitory concentration (MIC)
[28] = K.11655, RPMI-1640, 35° C., no growth observed, read-out: Minimal inhibitory concentration(MIC), C. krusei K. 11655
[29] = A.7330, RPMI-1640, 35° C., no growth observed, read-out: Minimal inhibitory concentration(MIC), C. parapsitosis A. 7330
[30] = C. parapsitosis A. 7330, RPMI-1640, 35° C., read-out: Minimal inhibitory concentration (MIC)
[31] = A. niger A. 16404, RPMI-1640, 35° C., 4 to 48 hours, read-out: Minimal inhibitory concentration (MIC)
[32] = A.16404, RPMI-1640, 35° C., 4 to 48 hours, no growth observed, read-out: Minimal inhibitory concentration(MIC), A. niger A. 16404
[33] = A.16404, RPMI-1640, 35° C., no growth observed, read-out: Minimal inhibitory concentration (MIC), A. niger A. 16404
[34] = A.10231, RPMI-1640, 35° C., no growth observed, read-out: Minimal inhibitory concentration(MIC), C. albicans A. 10231
[35] = C. albicans A. 10231, RPMI-1640, 35° C., read-out: Minimal inhibitory concentration (MIC)
[36] = B.42419, RPMI-1640, 35° C., no growth observed, read-out: Minimal inhibitory concentration(MIC), Cry. neoformans B. 42419
[37] = Cry. neoformans B. 42419, RPMI-1640, 35° C., read-out: Minimal inhibitory concentration (MIC)
[38] = C. albicans IFO. 1385, RPMI-1640, 35° C., read-out: Minimal inhibitory concentration (MIC)
[39] = IFO.1385, RPMI-1640, 35° C., no growth observed, read-out: Minimal inhibitory concentration(MIC), C. albicans IFO. 1385
[40] = C12, C. albicans C1-2, RPMI-1640, 35° C., read-out: Minimal inhibitory concentration (MIC)
[41] = C12, RPMI-1640, 35° C., no growth observed, read-out: Minimal inhibitory concentration(MIC), C. albicans C1-2
[42] = A furnigatus B. 19119, RPMI-1640, 35° C., 4 to 48 hours, read-out: Minimal inhibitory concentration (MIC)
[43] = B.19119, RPMI-1640, 35° C., 4 to 48 hours, no growth observed, read-out: Minimal inhibitory concentration(MIC), A furnigatus B. 19119
[44] = B.19119, RPMI-1640, 35° C., no growth observed, read-out: Minimal inhibitory concentration (MIC), A furnigatus B. 19119
[45] = A.13803, RPMI-1640, 35° C., no growth observed, read-out: Minimal inhibitory concentration(MIC), C. tropicalis A. 13803
[46] = C. tropicalis A. 13803, RPMI-1640, 35° C., read-out: Minimal inhibitory concentration (MIC)

Measured: MIC

CCC(C)n1ncn(-c2ccc(N3CCN(c4ccc(OCC5COC(Cn6cncn6)(c6ccc(Cl)cc6Cl)O5)cc4)CC3)cc2)c1=O (centres unmarked) [itraconazole, reference compound]
0.39 µg/mL: [1]; [13] | [1]; [14] | [1]; [15] | [4]; [22] | [4]; [23] | Candida krusei K. 11655; [27] | Candida krusei K. 11655; [28] | [9]; [36] | [9]; [37]
0.78 µg/mL: [6]; [29] | [6]; [30]
≤ 0.1 µg/mL: [2]; [16] | [2]; [17] | [2]; [18] | [3]; [19] | [3]; [20] | [3]; [21] | [5]; [24] | [5]; [25] | [5]; [26] | [11]; [42] | [11]; [43] | [11]; [44]
1.56 µg/mL: [7]; [31] | [7]; [32] | [7]; [33] | [10]; [38] | [10]; [39]
> 100 µg/mL: [8]; [34] | [8]; [35] | Candida albicans C1-2; [40] | Candida albicans C1-2; [41] | [12]; [45] | [12]; [46]

OC(Cn1cncn1)(Cn1cncn1)c1ccc(F)cc1F [fluconazole, reference compound]
50 µg/mL: [3]; [19] | [3]; [20] | [3]; [21]
12.5 µg/mL: [1]; [13] | [1]; [14] | [1]; [15] | [2]; [16] | [2]; [17] | [2]; [18] | [4]; [22] | [4]; [23] | [6]; [29] | [6]; [30] | [10]; [38] | [10]; [39]
> 100 µg/mL: [7]; [31] | [7]; [32] | [7]; [33] | [8]; [34] | [8]; [35] | Candida albicans C1-2; [40] | Candida albicans C1-2; [41] | [11]; [42] | [11]; [43] | [11]; [44] | [12]; [45] | [12]; [46]
3.13 µg/mL: [5]; [24] | [5]; [25] | [5]; [26]
25 µg/mL: Candida krusei K. 11655; [27] | Candida krusei K. 11655; [28] | [9]; [36] | [9]; [37]
